# Measurements as given in patent US20230248659A1, “IMMUNE SUPPRESSING NANOPARTICLES FOR ROBUST SENSITIZATION OF DRUG-RESISTANT CANCER” (King Abdulaziz City for Science and Technology ( KACST), priority 2021, published 2023).
# Read-outs that look alike come from different tables or passages of the source.
# Test system: MDA-MB-231 cells
# Assay: LPS-mediated DOX resistance, AlamarBlue cell viability assay
# Type: cell-based
# Conditions: Homo sapiens
# Procedure: LPS ability to mediate DOX-resistance was examined to simulate the MDR phenotype of MDA-MB-231. Herein, there is compared the sensitivity of non-stimulated MDA-MB-231 cells and LPS-stimulated cells at an optimized migratory concentration of LPS (20 µg/mL) to DOX treatment. AlamarBlue cell viability assay was used to evaluate the ability of LPS activation to induce DOX resistance. […] On the contrary, LPS-stimulated cells were 64±4% viable after 24 hr of DOX-treatment. Remarkably, pretreatment with LPS for 24 hr was clearly able to reduce chemosensitivity, lessen DOX cytotoxicity, and increase cell survival approximately to 6-fold (p-value <0.0005) after 48 hr treatment. These quantitative results provide strong evidence of inflammation-based MDR mechanism specifically to DOX treatment in MDA-MB-231 cells.
# MDA-MB-231 cells were plated out in 96-well tissue culture plates at 1 ×10^4 cells per well and treated with or without LPS at concentration of (20 µg/mL) for 24 hr. Cells were then left untreated or treated simultaneously with (0.67 µg/mL) of the chemotherapeutic drug (DOX) and various doses of CS-TPP-HA-AGP NPs (50, 100, and 300 µg/ml). After further incubation for 48 or 72 hr, Cells were subjected to AlamarBlue cell viability assay. […] Fluorescence spectra were recorded at λex:550, λem:600 using BioTek Cytation 5™ multi-mode Microplate Reader-Gen5™ software.
compound,measurement,setting,value
"COc1cccc2c1C(=O)c1c(O)c3c(c(O)c1C2=O)C[C@@](O)(C(=O)CO)C[C@@H]3O[C@H]1C[C@H](N)[C@H](O)[C@H](C)O1 [DOX, doxorubicin]",viability at 0.67 µg/mL,"MDA-MB-231, 24 h, read-out: cell viability",64 ± 4%
same,viability at 0.67 µg/mL,"MDA-MB-231, read-out: cell viability",11 ± 10%
